Reference: patent publication US9999222B2, “Herbicidal combination comprising azines” (BASF SE, priority 2014, dated 2018)
Where “and” joins values, the source holds several entries; their conditions need not be identical. Equal values may be shown once. Read-outs that look alike come from different tables or passages of the source.

Legend:
Assay in all cases: Greenhouse test, pre-emergence treatment
[1] = test system: ALOMY; assay type: in vivo, Alopecurus myosuroides
Procedure, shortened: (§1)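 Seeds were sown in loamy sand with about 3.0% humus, and compounds in water were sprayed immediately after sowing, alone or as combinations formulated as 10% emulsion concentrates. Plants grew under hoods until rooted, at 10-25 °C or 20-35 °C by species, for 2 to 4 weeks. Damage was scored 0-100 (100 = no emergence or complete destruction), and Colby expected values were E=X+Y−(X·Y/100).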

[2] = test system: KCHSC; assay type: in vivo, Kochia scoparia; details: Bassia scoparia, pre-emergence, 480 h, pre-emergence, 125 g ai/ha; read-out: observed % activity 20 DAT
Procedure, shortened: as §1

[3] = test system: GALAP; assay type: in vivo, Galium aparine; details: Galium aparine, pre-emergence, 480 h; for inhibition at 125 g/ha: 125 g ai/ha
Procedure, shortened: as §1

[4] = test system: COMBE; assay type: in vivo, Commelina benghalensis; details: Commelina benghalensis, pre-emergence, 480 h, pre-emergence, 250 g ai/ha; read-out: observed % activity 20 DAT
Procedure, shortened: as §1

[5] = test system: BRADC; assay type: in vivo, Brachiaria decumbens
Procedure, shortened: as §1

[6] = test system: SETVI; assay type: in vivo, Setaria viridis; details: Setaria viridis, 480 h, read-out: observed % activity 20 DAT
Excerpt: The culture containers used were plastic flowerpots containing loamy sand with approximately 3.0% of humus as the substrate. The seeds of the test plants were sown separately for each species.
For the pre-emergence treatment, the active ingredients, which had been suspended or emulsified in water, were applied directly after sowing by means of finely distributing nozzles. The containers were irrigated gently to promote germination and growth and subsequently covered with transparent plastic hoods until the plants had rooted. This cover caused uniform germination of the test plants, unless this had been impaired by the active ingredients.
Depending on the species, the plants were kept at 10-25° C. or 20-35° C., respectively.
The test period extended over 2 to 4 weeks. During this time, the plants were tended, and their response to the individual treatments was evaluated.
Evaluation was carried out using a scale from 0 to 100. 100 means no emergence of the plants, or complete destruction of at least the aerial moieties, and 0 means no damage, or normal course of growth. A moderate herbicidal activity is given at values of at least 60, a good herbicidal activity is given at values of at least 70, and a very good herbicidal activity is given at values of at least 85.
The respective stated components a and b, and if appropriate, c were formulated as a 10% by weight strength emulsion concentrate and, with addition of the amount of solvent system, introduced into the spray liquor used for applying the active compound.
In the examples, the solvent used was water.
In the examples below, using the method of S. R. Colby (1967) “Calculating synergistic and antagonistic responses of herbicide combinations”, Weeds 15, p. 22ff., the value E, which is expected if the activity of the individual active compounds is only additive, was calculated. E=X+Y−(X·Y/100) where • X=percent activity using active compound a at an application rate A; • Y=percent activity using active compound b at an application rate B; • E=expected activity (in %) by a+b at application rates A+B.
If the value found experimentally is higher than the value E calculated according to Colby, a synergistic effect is present.

[7] = test system: POLCO; assay type: in vivo, Polygonum convolvulus; details: Fallopia convolvulus, pre-emergence, 480 h, pre-emergence
Procedure, shortened: as §1

[8] = test system: PHACA; assay type: in vivo, Phalaris canariensis; details: for inhibition at 250 g/ha: 250 g ai/ha
Procedure, shortened: as §1

[9] = test system: AVEFA; assay type: in vivo, Avena fatua; details: for inhibition at 125 g/ha / inhibition at 250 g/ha: Avena fatua, 480 h; for inhibition at 125 g/ha: 125 g ai/ha
Procedure, shortened: as §1

[10] = test system: IPOHE; assay type: in vivo, Ipomoea hederacea; details: Ipomoea hederacea, 480 h, 250 g ai/ha, read-out: observed % activity 20 DAT
Procedure, shortened: as §1

[11] = test system: EPHHL; assay type: in vivo, Euphorbia heterophylla; details: Euphorbia heterophylla, pre-emergence, 480 h, pre-emergence, 250 g ai/ha; read-out: observed % activity 20 DAT
Procedure, shortened: as §1

[12] = test system: ECHCG; assay type: in vivo, Echinocloa crus-galli; details: Echinochloa crus-galli, 480 h, read-out: observed % activity 20 DAT
Procedure, shortened: as §1

[13] = test system: LOLMU; assay type: in vivo, Lolium multiflorum; details: pre-emergence
Procedure, shortened: as §1

[14] = 62, 5 g ai/ha, 20 DAT, read-out: observed % activity

`CSc1nnc(C(C)(C)C)c(=O)n1N` [metribuzin] showed an observed % activity ([1]; 62, 5 g ai/ha, 20 DAT) of 35%, an inhibition at 250 g/ha ([1]; Alopecurus myosuroides, pre-emergence, 480 h, 250 g ai/ha, 20 DAT, read-out: observed % activity) of 98% and an inhibition at 62.5 g/ha ([1]; Alopecurus myosuroides, pre-emergence, 480 h, pre-emergence, 62.5 g ai/ha, read-out: observed % activity 20 DAT) of 0%. For the same compound, the inhibition at 125 g/ha ([1]; Alopecurus myosuroides, pre-emergence, 480 h, pre-emergence, 125 g ai/ha, read-out: observed % activity 20 DAT) was 80%, the inhibition at 250 g/ha ([1]; Alopecurus myosuroides, pre-emergence, 480 h, pre-emergence, 250 g ai/ha, read-out: observed % activity 20 DAT) was 90% and the “observed % activity 20 DAT” value ([1]; pre-emergence, 250 g ai/ha) was 75%. It also gave an inhibition at 125 g/ha [2] of 95%, an inhibition at 125 g/ha ([3]; 20 DAT, read-out: observed % activity) of 30% and an inhibition at 250 g/ha ([3]; 250 g ai/ha, 20 DAT, read-out: observed % activity) of 30%. It also gave an inhibition at 125 g/ha ([3]; read-out: observed % activity 20 DAT) of 20%, a pest or weed control at 62.5 g/ha [3, 14] of 30% and an inhibition at 250 g/ha [4] of 90%. The observed % activity ([5]; 62, 5 g ai/ha, 20 DAT) was 50%, the inhibition at 62.5 g/ha ([5]; Urochloa decumbens, pre-emergence, 480 h, pre-emergence, 62.5 g ai/ha, read-out: observed % activity 20 DAT) was 45% and the “observed % activity 20 DAT” value ([5]; pre-emergence, 250 g ai/ha) was 40%. The inhibition at 125 g/ha ([6]; 125 g ai/ha) was 65%, the inhibition at 250 g/ha ([6]; 250 g ai/ha) was 95% and the inhibition at 125 g/ha ([7]; 125 g ai/ha, read-out: observed % activity 20 DAT) was 20%. It also gave an inhibition at 250 g/ha ([7]; 250 g ai/ha, read-out: observed % activity 20 DAT) of 20%, a pest or weed control at 62.5 g/ha [7, 14] of 0% and an observed % activity ([8]; 62, 5 g ai/ha, 20 DAT) of 30%. For the same compound, the inhibition at 125 g/ha ([8]; Phalaris canariensis, pre-emergence, 480 h, 125 g ai/ha, 20 DAT, read-out: observed % activity) was 70%, the inhibition at 250 g/ha ([8]; Phalaris canariensis, pre-emergence, 480 h, 20 DAT, read-out: observed % activity) was 90% and the inhibition at 62.5 g/ha ([8]; Phalaris canariensis, pre-emergence, 480 h, pre-emergence, 62.5 g ai/ha, read-out: observed % activity 20 DAT) was 15%. The inhibition at 125 g/ha ([8]; Phalaris canariensis, pre-emergence, 480 h, pre-emergence, 125 g ai/ha, read-out: observed % activity 20 DAT) was 65%, the inhibition at 250 g/ha ([8]; Phalaris canariensis, pre-emergence, 480 h, pre-emergence, read-out: observed % activity 20 DAT) was 95% and the “observed % activity 20 DAT” value ([8]; pre-emergence, 125 g ai/ha) was 75%. It also gave an observed % activity ([9]; 62, 5 g ai/ha, 20 DAT) of 0%, an inhibition at 125 g/ha ([9]; pre-emergence, 20 DAT, read-out: observed % activity) of 10% and an inhibition at 250 g/ha ([9]; pre-emergence, 250 g ai/ha, 20 DAT, read-out: observed % activity) of 55%. The inhibition at 125 g/ha ([9]; pre-emergence, pre-emergence, read-out: observed % activity 20 DAT) was 80%, the inhibition at 250 g/ha ([9]; pre-emergence, pre-emergence, 250 g ai/ha, read-out: observed % activity 20 DAT) was 70% and the “observed % activity 20 DAT” value ([9]; pre-emergence, 250 g ai/ha) was 65%. For the same compound, the inhibition at 250 g/ha [10] was 20%, the inhibition at 250 g/ha [11] was 85% and the inhibition at 125 g/ha ([12]; 125 g ai/ha) was 80%. For the same compound, the inhibition at 250 g/ha ([12]; 250 g ai/ha) was 95%, the inhibition at 125 g/ha ([13]; Lolium multiflorum, 480 h, 125 g ai/ha, 20 DAT, read-out: observed % activity) was 60% and the inhibition at 250 g/ha ([13]; Lolium multiflorum, 480 h, 250 g ai/ha, 20 DAT, read-out: observed % activity) was 90%. The inhibition at 62.5 g/ha ([13]; Lolium multiflorum, 480 h, 62.5 g ai/ha, read-out: observed % activity 20 DAT) was 0%, the inhibition at 125 g/ha ([13]; Lolium multiflorum, 480 h, 125 g ai/ha, read-out: observed % activity 20 DAT) was 55% and the “observed % activity 20 DAT” value ([13]; 125 g ai/ha) was 65%. For the same compound, the “observed % activity 20 DAT” value ([13]; 250 g ai/ha) was 45% and 75%.
